The values that follow are results of earlier work, collected in paper PMC4871733 (Nature chemical biology, 2016).

Bounds are passed on as bounds.

The conditions of data set [1]: after 30 minute exposure.
For data set [2] the following is noted: after 30 minute exposure. The source holds these as a separate data set.
Assay in data set [3]: not given
This is another data set of the same source.

For data set [4] the following is noted: after 30 minute exposure. The source holds these as a separate data set.

For the compound `Cn1c2cc([S+](C)[O-])sc2c2cnn(Cc3cccc(N)c3)c(=O)c21` (centres unmarked) [ML265], the Efflux ratio is 1.35. Moreover, the “Stability in human liver microsomes” value in data set [1] is given as greater than 90%. For the same compound, the “Stability in rat liver microsomes” value in data set [2] was greater than 90%. Further, the Aqueous kinetic solubility in data set [3] was 79 µM. In addition, the “Stability in mouse liver microsomes” value in data set [4] is greater than 90%.
